In publication PMC5760531, “Action Potential Recording and Pro-arrhythmia Risk Analysis in Human Ventricular Trabeculae” (Frontiers in Physiology, 2018):

System: human ventricular trabeculae
Assay: Action potential recording and pro-arrhythmic score analysis in human ventricular trabeculae (hVT);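 also: sharp microelectrode action potential recordings at 37°C in Tyrode-perfused trabeculae, 4 cumulative concentrations each applied 31 min, values averaged over last 30 APs, vehicle 0.1% DMSO as control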
Conditions: 1Hz; for Beat Escape (raw data) / EADs (raw data) / Refractoriness Escape (raw data): n=4 trabeculae

`Nc1nnc(-c2cccc(Cl)c2Cl)c(N)n1` [LAMOTRIGINE, Lamotrigine] was tested, and the “AMAX (average raw data)” value (0.6-FOLD free ETPC (17µM)) was 101, the “AMAX percentage change compared to vehicle control” value (“AMAX percentage change” below) (0.6-FOLD free ETPC (17µM)) was -5% and the “APD30 (average raw data)” value (0.6-FOLD free ETPC (17µM)) was 147. For the same compound, the “APD30 percentage change compared to vehicle control” value (“APD30 percentage change” for short) (0.6-FOLD free ETPC (17µM)) was -2%, the “APD50 (average raw data)” value (0.6-FOLD free ETPC (17µM)) was 197 and the “APD50 percentage change compared to vehicle control” value (shortened to “APD50 percentage change”) (0.6-FOLD free ETPC (17µM)) was 0%. For the same compound, the “APD90 (average raw data)” value (0.6-FOLD free ETPC (17µM)) was 282, the “APD90 percentage change compared to vehicle control” value (“APD90 percentage change” below) (0.6-FOLD free ETPC (17µM)) was 1% and the “Alternans (average raw data)” value (0.6-FOLD free ETPC (17µM)) was 0.88. The “Alternans percentage change compared to vehicle control” value (from here on “Alternans percentage change”) (0.6-FOLD free ETPC (17µM)) was -35%, the “Beat Escape percentage change compared to vehicle control” value (shortened to “Beat Escape percentage change”) (0.6-FOLD free ETPC (17µM)) was 0% and the “EADs percentage change compared to vehicle control” value (from here on “EADs percentage change”) (0.6-FOLD free ETPC (17µM)) was 0%. For the same compound, the “ERP (average raw data)” value (0.6-FOLD free ETPC (17µM)) was 0.44, the “ERP percentage change compared to vehicle control” value (from here on “ERP percentage change”) (0.6-FOLD free ETPC (17µM)) was 4% and the “Max Dispersion (average raw data)” value (0.6-FOLD free ETPC (17µM)) was 4.42. The “Max Dispersion percentage change compared to vehicle control” value (“Max Dispersion percentage change” for short) (0.6-FOLD free ETPC (17µM)) was -5%, the “RMP (average raw data)” value (0.6-FOLD free ETPC (17µM)) was -83 and the “RMP percentage change compared to vehicle control” value (“RMP percentage change” below) (0.6-FOLD free ETPC (17µM)) was -3%. For the same compound, the “Refractoriness Escape percentage change compared to vehicle control” value (“Refractoriness Escape percentage change” below) (0.6-FOLD free ETPC (17µM)) was 0%, the “STV (average raw data)” value (0.6-FOLD free ETPC (17µM)) was 0.60 and the “STV percentage change compared to vehicle control” value (from here on “STV percentage change”) (0.6-FOLD free ETPC (17µM)) was -26%. The “Triangulation (average raw data)” value (0.6-FOLD free ETPC (17µM)) was 136, the “Triangulation percentage change compared to vehicle control” value (“Triangulation percentage change” for short) (0.6-FOLD free ETPC (17µM)) was 3% and the “Beat Escape (raw data)” value (0.6-FOLD free ETPC (17µM)) was 0. The “EADs (raw data)” value (0.6-FOLD free ETPC (17µM)) was 0, the “Refractoriness Escape (raw data)” value (0.6-FOLD free ETPC (17µM)) was 0 and the “AMAX (average raw data)” value (6-FOLD free ETPC (17µM)) was 106. For the same compound, the “AMAX percentage change” value (6-FOLD free ETPC (17µM)) was -1%, the “APD30 (average raw data)” value (6-FOLD free ETPC (17µM)) was 128 and the “APD30 percentage change” value (6-FOLD free ETPC (17µM)) was -15%. For the same compound, the “APD50 (average raw data)” value (6-FOLD free ETPC (17µM)) was 169, the “APD50 percentage change” value (6-FOLD free ETPC (17µM)) was -14% and the “APD90 (average raw data)” value (6-FOLD free ETPC (17µM)) was 249. The “APD90 percentage change” value (6-FOLD free ETPC (17µM)) was -11%, the “Alternans (average raw data)” value (6-FOLD free ETPC (17µM)) was 1.29 and the “Alternans percentage change” value (6-FOLD free ETPC (17µM)) was -5%. For the same compound, the “Beat Escape percentage change” value (6-FOLD free ETPC (17µM)) was 0%, the “EADs percentage change” value (6-FOLD free ETPC (17µM)) was 0% and the “ERP (average raw data)” value (6-FOLD free ETPC (17µM)) was 0.41. The “ERP percentage change” value (6-FOLD free ETPC (17µM)) was -3%, the “Max Dispersion (average raw data)” value (6-FOLD free ETPC (17µM)) was 5.13 and the “Max Dispersion percentage change” value (6-FOLD free ETPC (17µM)) was 10%. The “RMP (average raw data)” value (6-FOLD free ETPC (17µM)) was -87, the “RMP percentage change” value (6-FOLD free ETPC (17µM)) was 2% and the “Refractoriness Escape percentage change” value (6-FOLD free ETPC (17µM)) was 0%. For the same compound, the “STV (average raw data)” value (6-FOLD free ETPC (17µM)) was 0.81, the “STV percentage change” value (6-FOLD free ETPC (17µM)) was 302% and the “Triangulation (average raw data)” value (6-FOLD free ETPC (17µM)) was 121. The “Triangulation percentage change” value (6-FOLD free ETPC (17µM)) was -8%, the “Beat Escape (raw data)” value (6-FOLD free ETPC (17µM)) was 0 and the “EADs (raw data)” value (6-FOLD free ETPC (17µM)) was 0. For the same compound, the “Refractoriness Escape (raw data)” value (6-FOLD free ETPC (17µM)) was 0, the “AMAX (average raw data)” value (18-FOLD free ETPC (17µM)) was 97 and the “AMAX percentage change” value (18-FOLD free ETPC (17µM)) was -9%. For the same compound, the “APD30 (average raw data)” value (18-FOLD free ETPC (17µM)) was 115, the “APD30 percentage change” value (18-FOLD free ETPC (17µM)) was -23% and the “APD50 (average raw data)” value (18-FOLD free ETPC (17µM)) was 152. For the same compound, the “APD50 percentage change” value (18-FOLD free ETPC (17µM)) was -23%, the “APD90 (average raw data)” value (18-FOLD free ETPC (17µM)) was 244 and the “APD90 percentage change” value (18-FOLD free ETPC (17µM)) was -13%. The “Alternans (average raw data)” value (18-FOLD free ETPC (17µM)) was 7.23, the “Alternans percentage change” value (18-FOLD free ETPC (17µM)) was 435% and the “Beat Escape percentage change” value (18-FOLD free ETPC (17µM)) was 25%. For the same compound, the “EADs percentage change” value (18-FOLD free ETPC (17µM)) was 0%, the “ERP (average raw data)” value (18-FOLD free ETPC (17µM)) was 0.39 and the “ERP percentage change” value (18-FOLD free ETPC (17µM)) was -7%. The “Max Dispersion (average raw data)” value (18-FOLD free ETPC (17µM)) was 10.63, the “Max Dispersion percentage change” value (18-FOLD free ETPC (17µM)) was 127% and the “RMP (average raw data)” value (18-FOLD free ETPC (17µM)) was -90. The “RMP percentage change” value (18-FOLD free ETPC (17µM)) was 5%, the “Refractoriness Escape percentage change” value (18-FOLD free ETPC (17µM)) was 0% and the “STV (average raw data)” value (18-FOLD free ETPC (17µM)) was 5.08. The “STV percentage change” value (18-FOLD free ETPC (17µM)) was 477%, the “Triangulation (average raw data)” value (18-FOLD free ETPC (17µM)) was 130 and the “Triangulation percentage change” value (18-FOLD free ETPC (17µM)) was -2%. For the same compound, the “Beat Escape (raw data)” value (18-FOLD free ETPC (17µM)) was 1, the “EADs (raw data)” value (18-FOLD free ETPC (17µM)) was 0 and the “Refractoriness Escape (raw data)” value (18-FOLD free ETPC (17µM)) was 0. The “AMAX (average raw data)” value (59-FOLD free ETPC (17µM)) was 39, the “AMAX percentage change” value (59-FOLD free ETPC (17µM)) was -63% and the “APD30 (average raw data)” value (59-FOLD free ETPC (17µM)) was 48. For the same compound, the “APD30 percentage change” value (59-FOLD free ETPC (17µM)) was -69%, the “APD50 (average raw data)” value (59-FOLD free ETPC (17µM)) was 66 and the “APD50 percentage change” value (59-FOLD free ETPC (17µM)) was -67%. The “APD90 (average raw data)” value (59-FOLD free ETPC (17µM)) was 169, the “APD90 percentage change” value (59-FOLD free ETPC (17µM)) was -38% and the “Alternans (average raw data)” value (59-FOLD free ETPC (17µM)) was 6.14. For the same compound, the “Alternans percentage change” value (59-FOLD free ETPC (17µM)) was 354%, the “Beat Escape percentage change” value (59-FOLD free ETPC (17µM)) was 100% and the “EADs percentage change” value (59-FOLD free ETPC (17µM)) was 0%. For the same compound, the “ERP (average raw data)” value (59-FOLD free ETPC (17µM)) was 0.38, the “ERP percentage change” value (59-FOLD free ETPC (17µM)) was -10% and the “Max Dispersion (average raw data)” value (59-FOLD free ETPC (17µM)) was 28.20. The “Max Dispersion percentage change” value (59-FOLD free ETPC (17µM)) was 503%, the “RMP (average raw data)” value (59-FOLD free ETPC (17µM)) was -74 and the “RMP percentage change” value (59-FOLD free ETPC (17µM)) was -9%. For the same compound, the “Refractoriness Escape percentage change” value (59-FOLD free ETPC (17µM)) was 0%, the “STV (average raw data)” value (59-FOLD free ETPC (17µM)) was 3.94 and the “STV percentage change” value (59-FOLD free ETPC (17µM)) was 2736%. For the same compound, the “Triangulation (average raw data)” value (59-FOLD free ETPC (17µM)) was 121, the “Triangulation percentage change” value (59-FOLD free ETPC (17µM)) was 1% and the “Beat Escape (raw data)” value (59-FOLD free ETPC (17µM)) was 4. For the same compound, the “EADs (raw data)” value (59-FOLD free ETPC (17µM)) was 0.
